Experiments:
Assay type in all cases: cell-based
[1] = tested on: FKBP51, GILZ, DDIT4 mRNA expression in K562 and Granta cells; experiment: Q-PCR of GR transactivation marker genes; conditions: 4 h (FKBP51, GILZ) or 24 h (DDIT4); Dex 10 µM, 10S-E2 0.1 µM; vs control
From the text: Q-PCR results were confirmed by Western blot analysis of the level of GR phosphorylated by Ser211, known as a crucial protein modification for GR TA realization because of its binding to short cysteine-rich fragments of the coactivator CREB-binding protein [41].
Figure 3 Effects of synephrine derivatives on GR transactivation in Granta lymphoma and K562 leukemia cells. (A) Q-PCR analysis of FKBP51, GILZ, and DDIT4 mRNA expression in K562 and Granta cells. […] The Q-PCR results were normalized to the expression of the housekeeping gene RPL27 and are presented as fold changes compared to the control. The mean ± SD was calculated for three individual samples/condition (n = 3). Statistically significant differences compared to the control: * p < 0.05, ** p < 0.01. (B) The levels of the nuclear fraction of phospho-GR (Ser211) were determined using Western blot analysis (n = 3; characteristic images are presented in the figure). Histone H3 was used as a loading control.
(§1) Total RNA isolation from cell cultures and murine bones, reverse transcription, and Q-PCR were performed as described in [36]. Primers were designed using NCBI Primer-BLAST https://www.ncbi.nlm.nih.gov/tools/primer-blast/, accessed on 25 August 2025 (Supplementary Table S1). Results were normalized to the expression of the housekeeping RPL27 и Rpl27 genes. The experiments were performed in triplicate.

[2] = tested on: NF-kB activity in K562 cells; experiment: NF-kB.Luc reporter assay in K562 cells; conditions: 5 h, 10S-E2 1 µM
Protocol: (§2) We analyzed GR TR function using an NF-kB.Luc reporter assay with the irritating inflammatory agent phorbol 13-acetate 12-myristate (TPA) as an inducer of NF-kB signaling and positive control.
Figure 4 Effects of synephrine derivatives on GR transrepression in Granta lymphoma and K562 leukemia cells. (A) K562 and Granta cells stably infected with the lentiviruses bearing the NF-kB luciferase reporter. Cells were incubated for 5 h with the solvent (control), TPA (5 ng/mL), 4S-C2 (10 µM), 8S-E3 (10 µM), 10S-E2 (1 µM), or 13S-G2 (1 µM). Luciferase activity was determined as described in the Materials and Methods section. (B) IL1-α and IL6 mRNA expression in K562 and Granta cells. […] The mean ± SD was calculated for three individual samples/condition (n = 3). […]
Lentiviral stocks were generated using the lentiviral expression vector NF-kB. […] The infection efficiency exceeded 90% (tracked by GFP fluorescence).
(§3) Cells (10^4 cells/well in a 24-well plate), stably expressing Firefly Luciferase under the NF-kB promoter, were treated for 5 h with TPA (12-O-tetradecanoylphorbol-13-acetate, Boston, MA, USA, 10 ng/mL), 4S-C2 (10 µM), 8S-E3 (10 µM), 10S-E2 (1 µM), 13S-G2 (1 µM), or the vehicle. Luciferase activity was measured as described using a commercial Luciferase Assay (“Promega”, Madison, WI, USA) and Luminometer TD 20/20 (“Turner Design Instruments”, San Jose, CA, USA). […]

[3] = tested on: NF-kB activity in Granta cells; experiment: NF-kB.Luc reporter assay in Granta cells; conditions: 5 h, 10S-E2 1 µM
Protocol: as §2
(§4) Figure 4 Effects of synephrine derivatives on GR transrepression in Granta lymphoma and K562 leukemia cells. (A) K562 and Granta cells stably infected with the lentiviruses bearing the NF-kB luciferase reporter. Cells were incubated for 5 h with the solvent (control), TPA (5 ng/mL), 4S-C2 (10 µM), 8S-E3 (10 µM), 10S-E2 (1 µM), or 13S-G2 (1 µM). Luciferase activity was determined as described in the Materials and Methods section. (B) IL1-α and IL6 mRNA expression in K562 and Granta cells. Q-PCR results were normalized to the expression of the housekeeping gene RPL27 and are presented as the fold change compared to the control. The mean ± SD was calculated for three individual samples/condition (n = 3). Statistically significant differences compared to the control: * p < 0.05, ** p < 0.01.
Lentiviral stocks were generated using the lentiviral expression vector NF-kB. Luc was encoded with Firefly Luciferase reporters with the NF-kB-responsive promoter of minimal CMV promoter as a control (“System Bioscience”, Moutain View, CA, USA), along with packing plasmids GAG, REV, and VSVg. HEK-293T cells were transfected with the abovementioned plasmids using TurboFect reagent (“Thermo Scientific”, Waltham, MA, USA) according to the manufacturer’s protocol. […] The infection efficiency exceeded 90% (tracked by GFP fluorescence).
as §3

[4] = tested on: IL1-α and IL6 mRNA expression in K562 and Granta cells; experiment: Q-PCR of GR transrepression marker genes
Protocol: as §4, §1

K562 cells = experiment: Cell cycle analysis by PI flow cytometry in K562 cells; conditions: 24 h, 10S-E2 6.25 µM
Protocol: Figure 5 Pro-apoptotic and anti-cancer effects of synephrine derivatives in vitro and in vivo. (A) Effect of 4S-C2, 8S-E3, 10S-E2, and 13S-G2 on cell cycle progression in K562 and Granta cells after 24 h of incubation. The cells were fixed with ethanol, stained with propidium iodide, and analyzed using flow cytometry. Statistically significant difference compared to control: *—p < 0.05, **—p < 0.01 (n = 3). (B) In vivo anti-cancer activity was evaluated using the transplantable P388 murine lymphoma model. […] Tumor nodule size was measured twice a week using digital calipers. Statistically significant differences compared to the control: * p < 0.05, ** p < 0.01.
The distribution of cells by cell cycle phases was evaluated using propidium iodide (PI) staining, as described in [19]. […] After incubation, the cells were resuspended in 70% ethanol and fixed for 2h at 4 °C. Cells were then washed twice with cold PBS, pH 7.4, and stained with 500 µL of cold propidium iodide (PI) solution (50 µg/mL PI, 1% Triton X-100, and 100 µg/mL RNase A in PBS). The cell cycle distribution of cells in samples was analyzed using an FACSCalibur Flow Cytometer (“BD Biosciences”, San Jose, CA, USA). The experiments were performed in triplicate.

Q: With `CCCCCCNCC(O)c1ccc(OCc2ccccc2)cc1` (stereo not drawn) [10S-E2, 1-[4-(benzyloxy)phenyl]-2-(hexylamino)ethanol] as the compound, how does the “expression of TA marker genes FKBP51, GILZ, DDIT4” value [1] read?
A: did not increase the expression

Q: And the “inhibition of luciferase activity (NF-kB)” value [2]?
A: 60%

Q: And the “effect on NF-kB activity” value ([3]; 4S-C2 10 µM)?
A: not statistically significant

Q: And the “inhibition of luciferase activity (NF-kB)” value [3]?
A: 15%

Q: What about the “expression of GR TR marker genes IL1-α and IL6” value [4] of the same compound?
A: downregulation

Q: What about the induction of apoptosis (K562 cells) of the same compound?
A: did not induce apoptosis

Q: And the “number of cells in the G1 phase” value (K562 cells)?
A: decrease in the number of cells in the G1 phase

Q: And the “number of replicating cells in the S phase” value (K562 cells)?
A: increased the number of replicating cells in the S phase

From PMC12691742, “Anti-Cancer Outcome of Glucocorticoid Receptor Transrepression by Synephrine Derivatives in Hematological Malignancies” (International Journal of Molecular Sciences, 2025)
